Article PMC4078515 (Pharmaceuticals, 2014)
Values joined by “and” are separate entries in the source; they are usually repeats but may differ in a detail not shown here. Equal values may be shown once. Read-outs that look alike come from different tables or passages of the source.

Tests used:
[1] = pH dependence, cited from earlier work
in vivo [2] = conditions: Hartley, guinea pig, ip
Experimental: (§1) The column used for chromatographic separation was a Waters Xbridge C18, 2.1 × 50 mm 2.5 µm at 30 °C. Mobile phase A: 10:40:50, 1.0% ammonium hydroxide solution in water, adjusted to pH 10.5 with formic acid: water: ACN. Mobile phase B: 10:90, 1.0% ammonium hydroxide solution in water, adjusted to pH 10.5 with formic acid: ACN. Flow rate: 250 µL/min, injection volume: 10 µL, run time: 10 min. Gradient, 100% A hold for 1 min, 0% B to 100% B over 4 min, hold 100% B for 4.5 min, 0% B at 9.51 min and equilibrate for 0.5 min.
(§2) The LTQ-XL ion trap mass spectrometer was coupled to the Accela LC system via an electrospray ionization (ESI) probe. The capillary temperature was maintained at 350 °C, sheath gas flow rate 50 arbitrary units, auxiliary gas flow rate 5 arbitrary units, sweep gas flow rate 0 arbitrary units, source voltage 3.20 kV, source current 100 µA, capillary voltage 43.00 V and tube lens 100 V. Compounds were detected in positive ion mode using selected ion monitoring (SIM). Hydroxybupropion was detected at (M+H)^+ = 256.1099, RT = 1.0 min, Rac-erythro-hydrobupropion (M+H)^+ = 242.1306, RT = 2.3 min, Rac-threo-hydrobupropion (M+H)^+ = 242.1306, RT 2.8 min, bupropion (M+H)^+ = 240.1150, RT = 2.0 min, N-methylbupropion (M+H)^+ = 254.1306, RT = 4.9 min, Rac-N-methyl-erythro-hydrobupropion (M+H)^+ = 256.1463, RT = 4.1 min and Rac-N-methyl-threo-hydrobupropion (M+H)^+ = 256.1463, RT = 4.6 min. The optimum detector conditions were found by tuning the instrument to be most sensitive for bupropion’s most abundant ion at 240 (m/z).
An additional group of guinea-pigs were used for brain collection at a single time point (20 min). The day of the experiment four guinea pigs per group were weighed then injected through the abdominal wall with bupropion given at 40 mg/kg IP and N-methylbupropion given at 42 mg/Kg IP. At time 20 min post-injection, the animals were decapitated and the brain extracted and rinsed in cold physiological saline. The whole brain was fast frozen on dry ice and placed into pre-labeled vials and stored at approximately −70 °C (deep frozen).>
(§3) Guinea pig plasma was defrosted and centrifuged. Then, plasma (50 µL) was added to a 1.5 mL microcentrifuge tube. ACN (200 µL) was added and the mixture was vortex mixed. The resulting solution was centrifuged at 8000 g for 10 min. Supernatant (100 µL) was added to HCl (100 µL, 0.001 M). The solution was vortex mixed and added to a 100 µL micro-insert for LC-MS analysis.
Guinea pig brain was defrosted. The whole brain was weighed into a beaker and 0.01 M HCl (20 mL) was added. The mixture was homogenized for 3 min on level 6 and allowed to settle for 10 min. An aliquot of the resulting suspension was centrifuged at 10,000 g for 10 min. Supernatant (250 µL) was added to ACN 750 µL. The mixture was centrifuged at 10,000 g for 10 min. 200 µL of the supernatant was added to 800 µL water. The clear solution was vortex mixed and analyzed by LC-MS.

in vivo [3] = conditions: guinea pig; for Cmax / Tmax / AUC(0-t) / half-life: male, Hartley albino
Experimental: as §1, §2
After acclimatization, male Hartley albino guinea-pigs, weighing 280–320 g were deprived of food for 16 h with free access to water (food withdrawal at 04:00 PM the day before). On the day of the experiment five guinea pigs per group were weighed then injected through the abdominal wall or fed by oral gavage with bupropion given at 40 mg/kg intraperitoneum. A second group of five guinea pigs were weighed then injected through the abdominal wall or fed by oral gavage with N-methyl bupropion given at 42 mg/Kg intraperitoneum.
Guinea pigs were placed under isoflurane anesthesia and approximately 100 µL of blood was collected using hematocrit capillaries or by cardiac puncture (terminal) into dry heparin/Li containing tubes before administration and then at five time points post-administration (0, 20, 40, 60, 120 and 180 min) for intraperitoneal study and seven time-points post administration (0, 20, 40, 60, 120, 180, 240 and 360 min) for oral study. After blood was collected, the tubes were inverted several times and placed on ice. The samples were centrifuged within 30 min maximum after sampling at 2205 g at 4 °C for 10 min. Plasma was transferred to polypropylene tubes and frozen with minimal delay at approximately −70 °C.
as §3
Pharmacokinetic calculations were determined on Graphpad Prism software. Michaelis-Menten parameters were determined by non-linear regression analysis. The pharmacokinetic data was interpreted using a one-compartment model where the amount of drug present in the body at any given time t [A(t)] is described in Equation (1).
Drug concentration: A(t) = Cp(t)V(1) where Cp(t) and V are the drug concentration in the plasma and the apparent volume of distribution respectively. At least five sample time points were collected including at least one time point before tmax and three time points during the terminal phase for half-life estimation.

in vivo [4] = type: in vivo; conditions: guinea pig; for concentration at 20 min / Kp at 20 min: Hartley, in vivo
Experimental: Guinea pig plasma was defrosted and centrifuged.
Guinea pig brain was defrosted. […] Supernatant (250 µL) was added to ACN 750 µL.
Brain levels were determined on a separate group.

[5] = N-demethylation of N-methylbupropion to bupropion, substrate saturation study; type: in vitro ADME; conditions: 0.1 mg/mL guinea pig S9 liver fraction, 50–1000 μM, 20 min, 37 °C, n = 3
Experimental: Guinea pig S9 liver fraction, NADPH regenerating solutions A and B were thawed rapidly to 37 °C, then kept on wet ice until ready for use. A number of different concentration substrate solutions were prepared were the maximum concentration of DMSO was 1%, and the concentration of guinea pig S9 liver fraction, NADP regenerating system solution B and phosphate buffer was fixed. After incubation for 5 min, NADP regenerating system solution A was added and the metabolism was initiated. Final volume was 100 μL. The tube was inverted twice and vortex mixed. The final concentrations in this solution was 50–1000 μM prodrug, 0.1 mg/mL guinea-pig S9 liver fraction, 1.3 mM NADP^+, 0.4 U/mL glucose-6-phosphate dehydrogenase and 1.0% DMSO. This solution was incubated for 20 min at 37 °C. The reaction was quenched by addition of 100 μL of ACN. […] The supernatant was analysed by LC-MS analysis.
Pharmacokinetic calculations were determined on Graphpad Prism software.
In selecting a guinea pig animal model for an in vivo study, it was prudent to first verify if an in vitro guinea pig model would carry out the same metabolic transformations. […] N-methylbupropion and bupropion concentrations were determined by LC-MS. […] Other unknown minor metabolites of N-methylbupropion were also detected but were not quantified at this stage. These were determined during the in vivo stage, discussed below.

[6] = system: norepinephrine transport (NET); set-up: method as in preceding paper (paper 1 of this series); conditions: in vitro; ref preceding paper (paper 1 of this series); cited from earlier work
[7] = system: dopamine active transport (DAT); set-up: method as in preceding paper (paper 1 of this series); conditions: in vitro; ref preceding paper (paper 1 of this series); cited from earlier work
[8] = ip, 40 mg/kg, Cmax, plasma analyte after dosing bupropion 40 mg/Kg IP
[9] = ip, 40 mg/kg, tmax, plasma analyte after dosing bupropion 40 mg/Kg IP
[10] = ip, 42 mg/kg, Mean Cmax ± SD, plasma analyte after N-Methylbupropion dosed at 42 mg/Kg IP, n = 5
[11] = ip, 42 mg/kg, tmax, plasma analyte after N-Methylbupropion dosed at 42 mg/Kg IP, n = 5
[12] = 20 min post dose of 40 mg/Kg bupropion via oral gavage, read-out: Brain levels
[13] = 20 min post dose of 40 mg/Kg bupropion via oral gavage, read-out: Brain/plasma ratio
[14] = 20 min post dose of 40 mg/Kg bupropion via oral gavage, read-out: Plasma levels
[15] = 20 min post dose of 42 mg/Kg N-methyl bupropion via oral gavage, read-out: Brain levels
[16] = 20 min post dose of 42 mg/Kg N-methyl bupropion via oral gavage, read-out: Brain/plasma ratio
[17] = 20 min post dose of 42 mg/Kg N-methyl bupropion via oral gavage, read-out: Plasma levels

Structure (SMILES)	Kp at 20 min (in vivo [2]; 40 mg/kg)	Kp at 20 min (in vivo [2]; 42 mg/kg)	Cmax (in vivo [3]; [8]) [ng/mL]	Tmax (in vivo [3]; [9]) [min]	Cmax (in vivo [3]; [10]) [ng/mL]	Tmax (in vivo [3]; [11]) [min]	concentration at 20 min (in vivo [4]; [12]) [ng/g]	Kp at 20 min (in vivo [4]; [13])	concentration at 20 min (in vivo [4]; [14]) [ng/mL]	concentration at 20 min (in vivo [4]; [15]) [ng/g]	Kp at 20 min (in vivo [4]; [16])	concentration at 20 min (in vivo [4]; [17]) [ng/mL]	AUC(0-t) (in vivo [3]; ip, 40 mg/kg) [ng·h/mL]	half-life (in vivo [3]; ip, 40 mg/kg) [min]	Cmax (in vivo [3]; ip, 40 mg/kg, Mean Cmax ± SD) [ng/mL]	further results
CC(NC(C)(C)C)C(=O)c1cccc(Cl)c1 (stereo not drawn) [Bup, Bupropion]	11.2	17.1	869 ± 190	20	380 ± 90	19.8	430	4.78	90	460	9.2	50				stability of freebase ([1]; aqueous): suffers from hydrolysis and oxidation at pH > 5; sample stability in plasma ([1]; plasma samples, ref 14,15 (supplement)): stable at low pH; Cmax (in vivo [3]; ip, 40 mg/kg, Mean Cmax ± SD, plasma analyte after Bupropion dosed at 40 mg/Kg IP, n = 5): 870 ± 190 ng/mL; Tmax (in vivo [3]; ip, 40 mg/kg, tmax, plasma analyte after Bupropion dosed at 40 mg/Kg IP, n = 5): 19.8 min
C[C@H]1NC(C)(C)CO[C@]1(O)c1cccc(Cl)c1 (relative stereo) [BupOH, hydroxybupropion]	6.3	7.61			720 ± 140	60							2330	408	950 ± 170	Tmax (in vivo [3]; in vivo): 60 min; Tmax (in vivo [3]; ip, 40 mg/kg): 39.6 min; Kp at 20 min (in vivo [4]; po, 40 mg/kg): 0.5; concentration at 20 min (in vivo [4]; po, 40 mg/kg): 370 ng/g and 730 ng/mL; Kp at 20 min (in vivo [4]; po, 42 mg/kg): 0.4; concentration at 20 min (in vivo [4]; po, 42 mg/kg): 220 ng/g and 550 ng/mL
C[C@H]([C@H](O)c1cccc(Cl)c1)N(C)C(C)(C)C (racemic) [N-Me THB, Rac-N-methyl-threo-hydrobupropion]		12.6			80 ± 20	19.8				570	14.2	40				
CC(C(=O)c1cccc(Cl)c1)N(C)C(C)(C)C (stereo not drawn) [N-Me Bup, N-methylbupropion]		20.2			180 ± 80	19.8						20				Vmax [5]: 419.2 ± 13.65 pmol/min/mg S9; t½ (in vivo [3]; plasma analyte after N-Methylbupropion dosed at 42 mg/Kg via oral gavage, n = 5): <LOQ; Brain/plasma ratio (in vivo [4]; 20 min post dose of 42 mg/Kg N-methyl bupropion via oral gavage): <LOQ; Brain levels (in vivo [4]; 20 min post dose of 42 mg/Kg N-methyl bupropion via oral gavage, listed as N-MeBup, 42 mg/kg): <LOQ; Brain levels (in vivo [4]; 20 min post dose of 42 mg/Kg N-methyl bupropion via oral gavage, listed as N-methylbupropion, 42 mg/kg): below the limit of quantitation; activity at NET compared to bupropion [6]: lower activity; activity at DAT compared to bupropion [7]: lower activity
C[C@@H](NC(C)(C)C)[C@H](O)c1cccc(Cl)c1 [THB, threo-hydrobupropion]	6.54	12.1	1230 ± 307	20	970 ± 280	60	970	1.17	830	620	1.15	540	2860	198	1220 ± 310	Tmax (in vivo [3]; in vivo, 42 mg/Kg): 60 min; Tmax (in vivo [3]; ip, 40 mg/kg, tmax): 19.8 min
